The record followed here is patent US20230293433A1, “METHOD OF MANUFACTURING MICELLES FOR DRUG DELIVERY” (Wisconsin Alumni Research Foundation, priority 2022, published 2023).

Common to all, as to format: physicochemical
A short description of series [1]: Encapsulation efficiency and drug loading of PEG-assist micelles (centrifugation, HPLC).
Procedure: In order to prepare drug-loaded micelles, PTX (at a weight ratio of 1:2 w/w PTX: PEG4kDa-b-PLA2.2kDa corresponding to target loading of ca. 33 wt. %) was added to the mixture prior to heating to 60° C. The amount of water when PTX was present in the formulation was adjusted to aim for 4 mg/mL PTX level. […] The hydration process was performed under different conditions including rapid hydration (vortexing after addition of water) or slow hydration (a two-step hydration protocol consisting of addition of half of the target water volume followed by mixing and then addition of the rest followed by gentle mixing at 50 rpm in a rotary mixer). Micelles with the target loadings of 10 and 20 wt. % as well as 1 mg/mL PTX target level were prepared after optimizing the process parameters and used for other experiments such as stability measurement, scalability study and freeze-drying. To prepare formulations with 1 mg/mL PTX target level at 10 or 20 wt. % target loading, 1 mg PTX together with 9 or 4 mg copolymer were mixed with 170 or 75 mg PEG, respectively, and heated to 60° C. to obtain a transparent mixture. The added amounts of PEG keep the block copolymer concentration at 5.0 wt. % in the mixture. The mixture was cooled down to 40° C., incubated for 2 h followed by hydration with 1 mL DI water at 40° C. to obtain drug-loaded polymeric micelles. The samples were cooled down to room temperature and analyzed.
To measure the encapsulation efficiency, unencapsulated drug was first removed by centrifugation at 10000 g for 10 min. Following centrifugation, 50 μl of supernatant for each sample was mixed with 50 μl DI water and 400 μl acetonitrile (ACN). High performance liquid chromatography (HPLC, Prominence, Shimadzu, Japan) equipped with an autosampler, a C18 column and a UV-Vis detector was employed to measure PTX content. PTX was detected at 228 nm absorption wavelength by injecting 10 μl sample through an 80/20 ACN/water v/v mixture as the mobile phase under the flow rate of 0.5 mL/min. […]
Series [2] in a line: Particle size, PdI and zeta potential by dynamic light scattering. Conditions: PROTAC-loaded PEG-b-PLA micelles, PEG1000, hydrated at 40° C. Here is the method: Dynamic light scattering (DLS, nano ZS, Malvern) was used to measure particle size distribution and to investigate micelle formation. For particle size analysis, the measurements were carried out at 25° C. using water as dispersant.

The nature of series [3]: Solubility of PTX in PEG-water mixtures. Conditions: all examined PEG molecular weights. An excerpt: To begin with, we measured the solubility of PTX in mixtures of water and PEG of different molecular weights as a function of water content. Hydrophobic drugs such as PTX are highly soluble in liquid PEG. Addition of water, however, if surpasses a critical point, will result in precipitation of PTX (see FIG. 4). This critical point is positioned near 50.0 wt. % water content (or water:PEG 1:1 w/w ratio) for all the examined molecular weights. In other words, presence of equal or larger amount of water in a PEG-water mixture prohibits PTX solubility. Considering the PEG-assist preparation procedure, the water content always well exceeds the critical value in the final product (ca. 85.0, 92.0 or 96.0 wt. % water content at 1 mg/mL PTX level for 10, 20 or 33 wt. % target loading, respectively). Therefore, PEG-water mixture cannot play any solubilization role for PTX in the proposed system, and the drug is expected to mainly reside in the PEG-b-PLA micelles' core.

Series [4] can be described thus: Stability of micelle formulations at room temperature. Conditions: 20 wt. % target loading, 1 mg/mL, PEG1000, 40° C. Here is the method: We considered stability, applicability to other drugs and copolymers, scalability and long-term preservation as four more criteria to evaluate the PEG-assist method. The stability of PTX-loaded PEG-b-PLA micelles prepared at 20 wt. % target loading with 1 mg/mL target PTX level is shown in FIG. 9A. All the samples were prepared at saturation temperature i.e. 40° C. […] In other words, PTX remains soluble after 8 hours incubation at room temperature without any significant loss for any of the PEG molecular weights (p>0.05). […] We observed that all the samples were completely transparent without any visual precipitation within the 8 h time frame. […] The inherent incompatibility of PTX with the micelle core can be alleviated using acyl and ester prodrug strategies for physical loading purposes [Tam, Y. T., et al., “Poly (ethylene glycol)-block-poly (d, 1-lactic acid) micelles containing oligo (lactic acid) 8-paclitaxel prodrug: In Vivo conversion and antitumor efficacy” J. Control. Rel., 2019. 298:186-193; Tam, Y. T., J. Gao, and G. S. Kwon, “Oligo (lactic acid) n-paclitaxel prodrugs for poly (ethylene glycol)-block-poly (lactic acid) micelles: loading, release, and backbiting conversion for anticancer activity” J. Am. […]
The samples in Example 16, were monitored for stability after reconstitution. The particle size and PdI was measured at different time points (1, 2 and 7 days).

Where [5] appears, read: PROTAC-loaded PEG-b-PLA micelles, PEG1000, hydrated at 40° C.

For the compound `COc1cc2ncnc(Nc3ccc(F)c(Cl)c3)c2cc1OCCCCCOCCOCCC(=O)N[C@H](C(=O)N1C[C@H](O)C[C@H]1C(=O)NCc1ccc(-c2scnc2C)cc1)C(C)(C)C` [Gefitinib-based PROTAC3], in series [1] (setting [5]), the “% Drug Loading” value is listed as 17.2% and the “% Encapsulation Efficiency” value was determined as 83.0%. Also, in series [2], the PdI amounted to 0.208, the Size is listed as 34.1 ± 6.5 nm and the Zeta potential was determined as 3.39 ± 14.2 mV.
Turning to `CC(=O)O[C@H]1C(=O)[C@@]2(C)[C@H]([C@H](OC(=O)c3ccccc3)[C@]3(O)C[C@H](OC(=O)[C@H](O)[C@@H](NC(=O)c4ccccc4)c4ccccc4)C(C)=C1C3(C)C)[C@]1(OC(C)=O)CO[C@@H]1C[C@@H]2O` [PTX, Paclitaxel], the “critical water content of PEG-water mixture above which PTX precipitates” value in series [3] is listed as around 50.0 wt. %.
As for `C=CCNC1=C2C[C@@H](C)C[C@H](OC)[C@H](O)[C@@H](C)/C=C(\C)[C@H](OC(N)=O)[C@@H](OC)/C=C\C=C(/C)C(=O)NC(=CC1=O)C2=O` [Sample 17AAG], the encapsulation efficiency in series [1] (17AAG, 20 wt. % target loading, 1 mg/mL, PEG1000, 40° C.) was found to be 80.2±2.1%. In series [4], the “time stable at room temperature” value is “at least 24 h”.
